The values below are quoted from earlier work in the CATMoS acute toxicity set (Mansouri et al. 2021).

Values joined by “and” are separate entries in the source; they are usually repeats but may differ in a detail not shown here. Equal values may be shown once.

This data set can be described thus: rat acute oral toxicity. The following applies: in vivo.
Regarding `Cc1ccc2c(c1)CC(=O)c1cc(C(C)C(=O)OCCOCCO)ccc1O2` (configuration not stated), the median lethal dose (LD50) was 219 mg/kg.

In the case of `CCC#N`, the LD50 was 39 mg/kg.

For the molecule `CCCCNCCO`, the LD50 is 1150 mg/kg.

For `CN1CCC(=C2c3ccccc3C(O)c3ccccc32)CC1` (configuration not stated), the 50% lethal dose (LD50) was 135 mg/kg.

`Cc1cc(O)c(C(C)(C)C)cc1C`: the 50% lethal dose (LD50) is 1030 mg/kg.

As to `CNC(=O)Oc1cc(C(C)C)c(OC(=O)NC)cc1C`, the LD50 is 60 mg/kg.

For `CCCCCC#CC(=O)OC`, the LD50 is 1530 mg/kg.

On to `Clc1nc(C(Cl)(Cl)Cl)c(Cl)c(Cl)c1Cl`, for which the LD50 was 1840 mg/kg.

With `Cc1cc(Cl)ccc1Cn1nc(C(=O)O)c2ccccc21`, the median lethal dose (LD50) is 4000 mg/kg.

`CCCCNCCCCCCN`: the 50% lethal dose (LD50) is 536 mg/kg.

For `C[C@H](Oc1ccc(Oc2nc3ccc(Cl)cc3o2)cc1)C(=O)O`, the LD50 is 2090 mg/kg.

In the case of `CC(=O)c1cc2c(cc1C)C(C)(C)C(C)C2C(C)C` (configuration not stated), the 50% lethal dose (LD50) is 2220 mg/kg.

Turning to `CNC(=O)c1cnn(C(C)(C)C)c1C#N`, the LD50 was 392 mg/kg.

With `CCCCCC(=O)NP(=O)(OC)SC` (configuration not stated), the LD50 was 25 mg/kg.

Take `Cc1cc(C)cc(O)c1`: the LD50 is 608 mg/kg.

With `FC(F)(F)c1nc2c(Cl)cc(Cl)cc2[nH]1`, the LD50 is 3.29 mg/kg.

For `CN1c2ccccc2Sc2ccc(CC(=O)O)cc21`, the LD50 was 495 mg/kg.

Regarding `c1ccc(C(N2CCOCC2)N2CCOCC2)cc1`, the LD50 was 5060 mg/kg.

As for `CCCCN(CCN(CCCC)C(=O)N1CCOCC1)C(=O)N1CCOCC1`, the LD50 is 270 mg/kg.

Turning to `CCCCn1c(=O)n(CCC)c(=O)c2[nH]c(C)nc21`, the median lethal dose (LD50) is 15 mg/kg.

For the molecule `O=c1c2nocc2c(-c2ccccc2)nn1-c1ccccc1`, the LD50 is 1000 mg/kg.

On to `Cn1c2ccccc2c2cc(N)ccc21`, for which the LD50 was 347 mg/kg.

For the molecule `CNc1c2c(nn1C)CCCC2`, the LD50 is 1850 mg/kg.

On to `Cc1ccc(NC(=O)CF)cc1`, for which the LD50 was 7 mg/kg.

As to `CCOP(=S)(OCC)SCSC(C)C`, the 50% lethal dose (LD50) is 1.1 mg/kg.

Turning to `CCC1CCC(CC)O1` (configuration not stated), the LD50 is 3400 mg/kg.

On to `O=C(O)CCC(=O)OC[C@@H](NC(=O)C(Cl)Cl)[C@H](O)c1ccc([N+](=O)[O-])cc1`, for which the LD50 was 8300 mg/kg.

As for `COc1cc2ccc(=O)oc2cc1O`, the LD50 is 3800 mg/kg.

Take `CCOC(=O)c1c(C)cc2c(CO)n[nH]c(=O)c2c1C`: the median lethal dose (LD50) is 1750 mg/kg.

Take `COc1ccc2c(c1)c(CC(=O)O)c(C)n2C(=O)c1ccc(Cl)cc1`: the LD50 is 21 mg/kg.

Consider `CCOC(=O)Nc1ccc2c(c1)N(C(=O)CN(C)C)c1ccccc1CC2`, for which the LD50 is 78 mg/kg.

Regarding `CN(C)CCOc1ccccc1Cc1ccccc1`, the median lethal dose (LD50) is 1470 mg/kg and 1400 mg/kg.

Turning to `CCC(Cl)(Cl)Cl`, the LD50 is 7460 mg/kg.

On to `C=CC(=O)OCC[N+](C)(C)C`, for which the LD50 was 500 mg/kg.

On to `CCOC(C1=NCC(C)(C)N1)c1ccccc1` (configuration not stated), for which the LD50 is 510 mg/kg.

On to `CCC(CC)(CO)CO`, for which the LD50 is 850 mg/kg.

Consider `CC(C)[C@]12CC(=O)[C@H](C)[C@H]1C2`, for which the 50% lethal dose (LD50) was 500 mg/kg.

Regarding `N=C(N)NC(=O)Cc1c(Cl)cccc1Cl`, the LD50 is 142 mg/kg.

For the molecule `COCc1ccc(-c2ccc(COC)cc2)cc1`, the LD50 is 1370 mg/kg.

With `CCCOP(=S)(CCl)Sc1ccc(Cl)cc1` (configuration not stated), the 50% lethal dose (LD50) was 80 mg/kg.

Turning to `CN(c1ccc(F)cc1F)c1c([N+](=O)[O-])cc([N+](=O)[O-])cc1C(F)(F)F`, the LD50 is 250 mg/kg.

Take `NS(=O)(=O)C1CCCCC1`: the 50% lethal dose (LD50) was 80 mg/kg.

`CN1CCCC(CN2c3ccccc3Sc3ccccc32)C1` (configuration not stated): the LD50 was 1000 mg/kg.

Consider `CCC(C)(C)/N=C(\NC#N)Nc1cccnc1`, for which the 50% lethal dose (LD50) is 14 mg/kg.

For `NCCCNCCNCCCN`, the LD50 is 1200 mg/kg.

`O=C(OCc1ccccc1)c1sc(Cl)nc1C(F)(F)F`: the LD50 was 5010 mg/kg.

On to `c1ccc2cc(Nc3ccc(Nc4ccc5ccccc5c4)cc3)ccc2c1`, for which the 50% lethal dose (LD50) was 4500 mg/kg.

`C=CCC1=C(C)C(OC(=O)C2C(C)(C)C2(C)C)CC1=O` (configuration not stated): the LD50 is 174 mg/kg.

Take `CCNCC`: the 50% lethal dose (LD50) is 9900 mg/kg.

Regarding `CCc1cccc(CC)c1N(CC(=O)O)C(=O)CCl`, the LD50 is 2300 mg/kg.

Take `Cc1ccc(CC(C)N)cc1` (configuration not stated): the 50% lethal dose (LD50) was 150 mg/kg.

Turning to `FC(F)(F)c1nc2c(Br)c(Br)c(Cl)c(Br)c2[nH]1`, the median lethal dose (LD50) is 8.32 mg/kg.

Take `C=C[C@]1(C)C[C@@H](OC(=O)CSCCN(CC)CC)[C@]2(C)[C@H](C)CC[C@]3(CCC(=O)[C@H]32)[C@@H](C)[C@@H]1O`: the median lethal dose (LD50) is 2230 mg/kg.

As for `COc1cc(S(C)=O)ccc1-c1nc2ccncc2[nH]1` (configuration not stated), the LD50 is 132 mg/kg.

In the case of `Cc1c(Cl)c(Br)c(Br)c2[nH]c(C(F)(F)F)nc12`, the LD50 is 23 mg/kg.

Turning to `Cc1ccc(S(=O)(=O)Oc2cc(S(=O)(=O)O)cc3cc(S(=O)(=O)O)cc(N)c23)cc1`, the 50% lethal dose (LD50) was 11500 mg/kg.

Consider `NS(=O)(=O)c1cc(-c2nnn[nH]2)c(NCc2cccs2)cc1Cl`, for which the LD50 is 2540 mg/kg.

In the case of `CC(C)OC(=O)c1c[n+](C)c2n(c1=O)C(C)CCC2` (configuration not stated), the LD50 was 1200 mg/kg.

For `CC[C@H]1C2C[C@H]3[C@@H]4N(C)c5ccccc5C45C[C@@H](C2[C@H]5O)N3[C@@H]1O` (some centres not stated), the LD50 is 290 mg/kg.

Turning to `CC(C)C(=O)OC(=O)C(C)C`, the median lethal dose (LD50) is 7700 mg/kg.

For `O=C1CCc2cccc3c2N1CC3`, the LD50 is 321 mg/kg.

Take `Cc1ncc([N+](=O)[O-])n1CCO`: the 50% lethal dose (LD50) was 3000 mg/kg.
